In patent publication US10336762B2 (priority 2017, dated 2019):
Where two headings read alike, the source gives them in different places.

Experiments:
[1] = system: TNFα; test: cells; assay type: cell-based, human; conditions: LPS-stimulated human monocytes, read-out: EC50 TNF
[2] = target: IRAK4 enzyme (Homo sapiens (Human), UniProt Q9NWZ3); test: biochemical; assay type: biochemical; conditions: IRAK4 enzyme, 500 μM ATP
[3] = Homo sapiens, Monocyte, TNFα content
[4] = Homo sapiens, Monocyte, TNFα by TR-FRET

Chain of IRAK4 enzyme (Q9NWZ3 whole entry): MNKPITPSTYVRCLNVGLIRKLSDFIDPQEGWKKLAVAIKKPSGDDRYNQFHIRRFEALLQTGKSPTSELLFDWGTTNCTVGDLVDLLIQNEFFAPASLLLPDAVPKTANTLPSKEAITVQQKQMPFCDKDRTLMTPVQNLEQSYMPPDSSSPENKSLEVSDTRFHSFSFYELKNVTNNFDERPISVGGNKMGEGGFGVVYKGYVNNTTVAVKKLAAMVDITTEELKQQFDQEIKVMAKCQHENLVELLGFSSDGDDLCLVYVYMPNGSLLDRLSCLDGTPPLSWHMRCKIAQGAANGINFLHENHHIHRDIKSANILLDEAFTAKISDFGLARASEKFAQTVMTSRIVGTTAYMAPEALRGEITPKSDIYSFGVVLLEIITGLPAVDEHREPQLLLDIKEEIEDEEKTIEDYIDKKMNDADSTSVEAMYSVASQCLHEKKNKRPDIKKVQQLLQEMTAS

| SMILES | EC50 [1, 3] | IC50 ([2]; TR-FRET (HTRF)) | IC50 ([2]; TR-FRET) | also measured |
| --- | --- | --- | --- | --- |
| CNC(=O)c1cnc(-c2ccc3cc(C#N)cnn23)cc1NC12CCC(C(=O)NC)(CC1)C2 [Example 468, 6-(3-cyanopyrrolo[1,2-b]pyridazin-7-yl)-N-methyl-4-((4-(methylcarbamoyl)bicyclo[2.2.1]heptan-1-yl)amino)nicotinamide] | 112 nM | 1 nM |  |  |
| CC(C)(O)[C@H](F)CNC(=O)c1cnc(-c2ccc3cc(C#N)cnn23)cc1N[C@H]1C[C@H](CNC(=O)[C@@H]2C[C@H]2F)C1 [Example 659, 6-(3-cyanopyrrolo[1,2-b]pyridazin-7-yl)-N-((R)-2-fluoro-3-hydroxy-3-methylbutyl)-4-(((1S,3R)-3-(((1S,2R)-2-fluoro-cyclopropane-1-carbox-amido)methyl)cyclobutyl)amino)nicotinamide] | 16 nM | < 1 nM |  |  |
| CC(C)(O)[C@H](F)CNC(=O)c1cnc(-c2ccc3cc(C#N)cnn23)cc1N[C@H]1C[C@H](CN)C1 [Example 692, 4-(((1r,3R)-3-(amino-methyl)cyclobutyl)amino)-6-(3-cyanopyrrolo[1,2-b]pyridazin-7-yl)-N-((R)-2-fluoro-3-hydroxy-3-methylbutyl)nicotinamide] | 315 nM | 1 nM |  |  |
| COC(=O)NC1CCC(NC(=O)c2cnc(-c3ccc4cc(C#N)cnn34)cc2N[C@H]2CCCC(O)C2)CC1 (stereo partly drawn) [Example 387, methyl ((1S,4r)-4-(6-(3-cyanopyrrolo[1,2-b]pyridazin-7-yl)-4-(((1S,3R)-3-hydroxy-cyclohexyl)amino)nicotinamido)cyclohexyl)carbamate] | 112 nM |  | 2 nM |  |
| CN(C)C(=O)O[C@H]1CC[C@H](Nc2cc(-c3ccc4cc(C#N)cnn34)ncc2C(=O)NC[C@@H](F)C(C)(C)O)CC1 [Example 164, (1R,4r)-4-((2-(3-cyano-pyrrolo[1,2-b]pyridazin-7-yl)-5-(((R)-2-fluoro-3-hydroxy-3-methylbutyl)carbamoyl)pyridin-4-yl)amino)cyclohexyl dimethylcarbamate] | 9940 nM |  | 132 nM |  |
| CC(C)(C)NC(=O)c1cnc(-c2ccc3cc(C#N)cnn23)cc1NC12CCC(O)(CC1)CC2 [Example 357, N-(tert-butyl)-6-(3-cyano-pyrrolo[1,2-b]pyridazin-7-yl)-4-((4-hydroxy-bicyclo[2.2.2]octan-1-yl)amino)nicotinamide] | 413 nM |  | 9 nM |  |
| CC(C)(O)[C@H](F)CNC(=O)c1cnc(-c2ccc3cc(C#N)cnn23)cc1NC12CCC(C(N)=O)(CC1)CC2 [Example 398, (R)-4-((4-carbamoylbicyclo[2.2.2]octan-1-yl)amino)-6-(3-cyanopyrrolo[1,2-b]pyridazin-7-yl)-N-(2-fluoro-3-hydroxy-3-methyl-butyl)nicotinamide] | 17 nM | < 1 nM |  |  |
| CC(C)(O)[C@H](F)CNC(=O)c1cnc(-c2ccc3cc(C#N)cnn23)cc1N[C@H]1C[C@H](CNc2nnc(C3CC3)o2)C1 [Example 696, 6-(3-cyanopyrrolo[1,2-b]pyridazin-7-yl)-4-(((1r,3R)-3-(((5-cyclopropyl-1,3,4-oxadiazol-2-yl)amino)methyl)cyclobutyl)amino)-N-((R)-2-fluoro-3-hydroxy-3-methylbutyl)nicotinamide] | 103 nM | < 1 nM |  |  |
| COC(=O)NCC1(O)CC(Nc2cc(-c3ccc4cc(C#N)cnn34)ncc2C(=O)NC[C@@H](F)C(C)(C)O)C1 (single isomer, unassigned) [Example 759] |  | 3 nM |  | EC50 ([1]; TNFα content): > 10000 nM |
| N#Cc1cnn2c(-c3cc(NC45CCC(O)(CC4)CC5)c(C(=O)NC[C@@H](F)C(=O)N4CC(F)(F)C4)cn3)ccc2c1 [Example 947, (R)-6-(3-cyanopyrrolo[1,2-b]pyridazin-7-yl)-N-(3-(3,3-difluoroazetidin-1-yl)-2-fluoro-3-oxopropyl)-4-((4-hydroxybicyclo[2.2.2]octan-1-yl)amino) nicotinamide] |  |  | < 1 nM | EC50 [1, 4]: 207 nM |
| COC(=O)NCCC(C)(C)Nc1cc(-c2ccc3cc(C#N)cnn23)ncc1C(=O)NC[C@@H](F)C(C)(C)O [Example 721, (R)-methyl (3-((2-(3-cyano-pyrrolo[1,2-b]pyridazin-7-yl)-5-((2-fluoro-3-hydroxy-3-methylbutyl)carbamoyl)pyridin-4-yl)amino)-3-methylbutyl)carbamate] | 87 nM | 1 nM |  |  |
| CC(C)(O)[C@H](F)CNC(=O)c1cnc(-c2ccc3cc(C#N)cnn23)cc1N[C@H]1C[C@@H]2C[C@H]1CN2 [Example 32, 4-(((1S,4S,5S)-2-azabicyclo[2.2.1]heptan-5-yl)amino)-6-(3-cyano-pyrrolo[1,2-b]pyridazin-7-yl)-N-((R)-2-fluoro-3-hydroxy-3-methylbutyl)nicotinamide] | > 10000 nM |  | 3 nM |  |
| CC(C)(O)[C@H](F)CNC(=O)c1cnc(-c2ccc3cc(C#N)cnn23)cc1N[C@H]1CC[C@H](c2nnco2)CC1 [Example 637, 4-(((1r,4R)-4-(1,3,4-oxadiazol-2-yl)cyclohexyl)amino)-6-(3-cyano-pyrrolo[1,2-b]pyridazin-7-yl)-N-((R)-2-fluoro-3-hydroxy-3-methylbutyl) nicotinamide] | 21 nM | < 1 nM |  |  |
| CC(C)(O)[C@H](F)CNC(=O)c1cnc(-c2ccc3cc(C#N)cnn23)cc1N[C@H]1[C@@H]2COC[C@@H]21 [Example 147, 4-(((1R,5S,6r)-3-oxabicyclo[3.1.0]hexan-6-yl)amino)-6-(3-cyano-pyrrolo[1,2-b]pyridazin-7-yl)-N-((R)-2-fluoro-3-hydroxy-3-methylbutyl)nicotinamide] | 47 nM |  | < 1 nM |  |
| COC[C@@H]1CCN1c1ccc(Nc2cc(-c3ccc4cc(C#N)cnn34)ncc2C(=O)NC[C@@H](F)C(C)(C)O)cn1 [Example 915, 6-(3-cyanopyrrolo[1,2-b]pyridazin-7-yl)-N-((R)-2-fluoro-3-hydroxy-3-methylbutyl)-4-((6-((S)-2-(methoxymethyl)azetidin-1-yl)pyridin-3-yl)amino) nicotinamide] |  |  | 1 nM | EC50 [1, 4]: 28 nM |
| CC(C)(O)[C@H](F)CNC(=O)c1cnc(-c2ccc3cc(C#N)cnn23)cc1N[C@H]1C[C@@](C)(O)C1 [Example 450, 6-(3-cyanopyrrolo[1,2-b]pyridazin-7-yl)-N-((R)-2-fluoro-3-hydroxy-3-methylbutyl)-4-(((1s,3S)-3-hydroxy-3-methylcyclo-butyl)amino)nicotinamide] | 44 nM | < 1 nM |  |  |
| CC(C)(O)[C@H](F)CNC(=O)c1cnc(-c2ccc3cc(C#N)cnn23)cc1N[C@H]1C[C@H](CNC(=O)C2CCO2)C1 (some centres unmarked) [Example 614] | 156 nM | 2 nM |  |  |
| CC(C)(O)[C@H](F)CNC(=O)c1cnc(-c2ccc3cc(C#N)cnn23)cc1N[C@H]1CC[C@H](n2cncn2)CC1 [Example 779, 4-(((1r,4R)-4-(1H-1,2,4-triazol-1-yl)cyclohexyl)amino)-6-(3-cyano-pyrrolo[1,2-b]pyridazin-7-yl)-N-((R)-2-fluoro-3-hydroxy-3-methylbutyl) nicotinamide] | 28 nM | < 1 nM |  |  |
| CC(C)(O)[C@H](F)CNC(=O)c1cnc(-c2ccc3cc(C#N)cnn23)cc1Nc1ccc(N2CCS(=O)(=O)CC2)cc1 [Example 688, (R)-6-(3-cyanopyrrolo[1,2-b]pyridazin-7-yl)-4-((4-(1,1-dioxidothiomorpholino)phenyl)amino)-N-(2-fluoro-3-hydroxy-3-methylbutyl) nicotinamide] | 24 nM | < 1 nM |  |  |
| CNC(=O)C1CCC(NC(=O)c2cnc(-c3ccc4cc(C#N)cnn34)cc2NC(C)C)CC1 (centres unmarked) [Example 22, 6-(3-cyanopyrrolo[1,2-b]pyridazin-7-yl)-4-(isopropyl-amino)-N-((1r,4r)-4-(methylcarbamoyl)cyclohexyl) nicotinamide] | 87 nM |  | < 1 nM |  |
| CC(=O)N[C@@H]1CC[C@@H](Nc2cc(-c3ccc4cc(C#N)cnn34)ncc2C(=O)NC[C@@H](F)C(C)(C)O)C1 [Example 306, 4-(((1R,3R)-3-acetamidocyclopentyl)amino)-6-(3-cyano-pyrrolo[1,2-b]pyridazin-7-yl)-N-((R)-2-fluoro-3-hydroxy-3-methylbutyl) nicotinamide] | 453 nM |  | 3 nM |  |
| CN(C)C(=O)c1ccc(Nc2cc(-c3ccc4cc(C#N)cnn34)ncc2C(=O)NC[C@@H](F)C(C)(C)O)cn1 [Example 575, (R)-5-((2-(3-cyano-pyrrolo[1,2-b]pyridazin-7-yl)-5-((2-fluoro-3-hydroxy-3-methylbutyl)carbamoyl)pyridin-4-yl)amino)-N,N-dimethyl-picolinamide] | 144 nM | 2 nM |  |  |
| CC(C)(O)[C@H](F)CNC(=O)c1cnc(-c2ccc3cc(C#N)cnn23)cc1Nc1ccc2[nH]ncc2c1 [Example 577, (R)-4-((1H-indazol-5-yl)amino)-6-(3-cyano-pyrrolo[1,2-b]pyridazin-7-yl)-N-(2-fluoro-3-hydroxy-3-methylbutyl) nicotinamide] | 30 nM | < 1 nM |  |  |
| CC(C)(O)[C@H](F)CNC(=O)c1cnc(-c2ccc3cc(C#N)cnn23)cc1Nc1cnn(C2CC2)c1 [Example 67, (R)-6-(3-cyanopyrrolo[1,2-b]pyridazin-7-yl)-4-((1-cyclopropyl-1H-pyrazol-4-yl)amino)-N-(2-fluoro-3-hydroxy-3-methylbutyl)nicotinamide] | 43 nM |  | < 1 nM |  |
| CC(C)(O)[C@H](F)CNC(=O)c1cnc(-c2ccc3cc(C#N)cnn23)cc1NC1CC2(CCN2CC(F)(F)F)C1 (stereo partly drawn) [Example 913, 6-(3-cyanopyrrolo[1,2-b]pyridazin-7-yl)-N-((R)-2-fluoro-3-hydroxy-3-methylbutyl)-4-(((4R,6s)-1-(2,2,2-trifluoroethyl)-1-azaspiro[3.3]heptan-6-yl)amino)nicotinamide] |  |  | 3 nM | EC50 ([1]; TNFα by TR-FRET): 226 nM |
